Measured values published in patent US7090861B2, “Sustained release delivery systems for solutes” (Farrington Pharmaceuticals, LLC, priority 2000, dated 2006).
Like-named read-outs stand apart in the source and are kept apart here.

Legend:
[1] = cited from earlier work
[2] = Cumulative release of albumin from a controlled-release device; format: physicochemical
Procedure: Bovine serum albumin (MW 68,000) was dissolved in phosphate buffered saline and loaded into a device designed to deliver a loading dose. After an initial burst release, the rate becomes constant. Data are plotted as the cumulated delivery of albumin over time, measured as described for FIG. 5. Approximately 10 mg was delivered in 24 hours.

Compound	absorption, share of the total ([1]; ileum)	absorption, share of the total ([1]; jejunum)	absorption, share of the total ([1]; stomach)	release kinetics of albumin ([2]; after an initial burst release)	cumulated delivery of albumin ([2]; in 24 hours, device designed to deliver a loading dose)
[Ca+2] [calcium]	60%	20%	< 2%		
Bovine serum albumin: Bovine serum albumin (MW 68,000) in phosphate buffered saline, loaded into a device designed to deliver a loading dose				zero order rate release of albumin over a duration of 24 hours	Approximately 10 mg
